# Experimental data as given in BindingDB's records for patent US10695334 (Boehringer Ingelheim International, 2020).
# pIC50: −log10 of the molar value.
# Target: Kallikrein-1 (Homo sapiens, UniProt P06870)
# Test: Inhibition Assay
# Method: Prior to the assay, human TK1 (R&D Systems) was activated by incubation with human trypsin (Calbiochem) in a 1:10,000 ratio for 15 min at 37° C. For assaying TK1 inhibitory activity, activated TK1 (31.25 nM or 1 U/mL) was incubated at 24° C. with 0.1 mM fluorogenic substrate H-Pro-Phe-Arg-AMC (11295 from Bachem) and various concentrations of the test compound in assay buffer. Measurements were performed in a kinetic interval every 2nd minute for 16 min using a Spectramax M5 (Molecular Devices) with the following settings of the wavelength excitation of 350 nm and wavelength emission of 450 nm.
# Kallikrein-1, sequence (P06870 whole entry): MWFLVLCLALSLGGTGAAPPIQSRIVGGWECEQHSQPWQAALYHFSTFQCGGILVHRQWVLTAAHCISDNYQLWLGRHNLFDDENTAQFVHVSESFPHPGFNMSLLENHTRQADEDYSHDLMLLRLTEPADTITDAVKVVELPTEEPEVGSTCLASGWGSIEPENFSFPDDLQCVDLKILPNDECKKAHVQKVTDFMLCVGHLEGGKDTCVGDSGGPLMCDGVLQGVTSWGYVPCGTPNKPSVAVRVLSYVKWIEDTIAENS
row,pIC50,Structure (SMILES)
1,< 5.00,"Cc1nc(N2CC3(CC3)C2)ccc1Cn1cc(C(=O)N[C@@H]2CCc3c(C)n[nH]c32)cn1 [US10695334, Example 11]"
2,< 5.00,"Cc1nc(N2CC3C(C2)C3(F)F)ccc1Cn1cc(C(=O)N[C@@H]2CCc3c(C)n[nH]c32)c(C)n1 (stereo partly drawn) [US10695334, Example 18]"
3,< 5.00,"Cc1nc(N2CC3C(C2)C3(F)F)ncc1Cn1cc(C(=O)N[C@@H]2CCc3c2n[nH]c3C)cn1 (stereo partly drawn) [US10695334, Example 84]"
